Data taken from ChEMBL document CHEMBL1131416 (J Med Chem, 1998).

Assays:
D(2) dopamine receptor [1] = biological target: T1, D(2) dopamine receptor (Bos taurus, UniProt P20288); assay: Inhibition of [3H]YM-09151-2 binding to bovine retina membrane Dopamine receptor D2, high affinity site
D(2) dopamine receptor [2] = biological target: T1, D(2) dopamine receptor; assay: Inhibition of [3H]YM-09151-2 binding to bovine retina membrane Dopamine receptor D2, low affinity site
D(2) dopamine receptor [3] = biological target: T1, D(2) dopamine receptor; assay: Tested for binding affinity against Dopamine receptor D2 like from bovine striatum membranes by using [3H]YM-09151-2 radioligand
D(1A) dopamine receptor = D(1A) dopamine receptor (Bos taurus, UniProt Q95136); assay: Binding affinity against Dopamine receptor D1 like from bovine retina membranes measured using [3H]SCH-23390 radioligand
Chain of D(1A) dopamine receptor (Q95136 whole entry): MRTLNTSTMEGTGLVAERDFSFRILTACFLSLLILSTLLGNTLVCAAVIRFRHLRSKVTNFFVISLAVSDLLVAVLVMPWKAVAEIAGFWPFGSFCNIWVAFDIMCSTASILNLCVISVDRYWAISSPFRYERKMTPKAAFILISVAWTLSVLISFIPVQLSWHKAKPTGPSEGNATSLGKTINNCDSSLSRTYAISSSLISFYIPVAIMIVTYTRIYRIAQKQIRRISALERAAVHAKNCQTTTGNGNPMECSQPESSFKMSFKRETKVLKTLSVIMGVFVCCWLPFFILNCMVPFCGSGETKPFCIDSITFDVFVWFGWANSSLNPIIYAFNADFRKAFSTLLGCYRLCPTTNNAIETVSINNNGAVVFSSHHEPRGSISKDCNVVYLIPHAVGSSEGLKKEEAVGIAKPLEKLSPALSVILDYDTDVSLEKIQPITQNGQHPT

T1 sequence (P20288 whole entry): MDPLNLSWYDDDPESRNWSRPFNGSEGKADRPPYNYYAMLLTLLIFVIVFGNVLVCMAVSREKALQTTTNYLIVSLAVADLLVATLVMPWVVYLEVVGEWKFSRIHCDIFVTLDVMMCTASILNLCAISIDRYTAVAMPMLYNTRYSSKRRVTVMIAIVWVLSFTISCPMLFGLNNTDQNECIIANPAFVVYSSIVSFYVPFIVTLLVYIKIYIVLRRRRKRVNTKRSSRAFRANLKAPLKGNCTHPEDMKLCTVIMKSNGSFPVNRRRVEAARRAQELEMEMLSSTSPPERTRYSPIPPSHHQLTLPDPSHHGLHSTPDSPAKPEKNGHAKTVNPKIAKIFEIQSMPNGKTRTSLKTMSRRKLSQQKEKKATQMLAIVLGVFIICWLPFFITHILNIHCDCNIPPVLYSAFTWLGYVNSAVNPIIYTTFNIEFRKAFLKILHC

Structure (SMILES) | Ki (D(2) dopamine receptor [1]) | Ki (D(2) dopamine receptor [2]) | Ki (D(2) dopamine receptor [3]) | Ki (D(1A) dopamine receptor)
Cc1cccc(C2CCCNC2)c1C (stereo unspecified) | 0.043 µM | 16 µM |  | 
CCCN1CCCC(c2cc(C)cc(C)c2)C1 (stereo unspecified) | 0.052 µM | 9.3 µM | 1.3 µM | 60 µM
CCCN1CCCC(c2ccc(C)cc2C)C1 (stereo unspecified) | 0.72 µM | 17 µM |  | 100 µM
CCCN1CCCC(c2c(C)cccc2C)C1 (stereo unspecified) | 0.156 µM | 23 µM |  | 98 µM
CCCN1CCCC(c2cc(C)ccc2C)C1 (stereo unspecified) | 0.54 µM | 25 µM |  | 112 µM
CCCN1CCCC(c2cccc(C)c2C)C1 (stereo unspecified) | 0.0753 µM | 7.8 µM | 4.9 µM | 60 µM
Cc1cc(C)cc(C2CCCNC2)c1 (stereo unspecified) | 0.24 µM | 24 µM |  | 
Cc1ccc(C2CCCNC2)cc1C (stereo unspecified) | 0.14 µM | 19 µM |  | 
CCCN1CCCC(c2ccc(C)c(C)c2)C1 (stereo unspecified) | 0.0191 µM | 8.2 µM | 4.99 µM | 102 µM
NCCc1ccc(O)c(O)c1 [DOPAMINE] |  |  |  | 4.3 µM
CCCN1CCC[C@@H](c2cccc(O)c2)C1 [PRECLAMOL] | 0.53 µM | 12 µM | 2.1 µM | 
